Experimental data: patent publication US20250282746A1, “HALOGEN-SUBSTITUTED ISOINDOLINE COMPOUND AND USE THEREOF” (CHENGDU FENDI PHARMACEUTICAL CO., LTD., priority 2022, published 2025)
Read-outs that look alike come from different tables or passages of the source.

Key:
Assay type in all cases: cell-based
IKZF3 = target: T1, IKZF3 (Homo sapiens, UniProt Q9UKT9); assay: Degradation of IKZF3 protein in HL-60 cells (Western blot); settings: 4 h
T1 construct: The whole cell lysate was prepared using a RIPA lysis buffer; endogenous in cells; host or cells: HL-60 cells
T1 sequence (Q9UKT9 whole entry): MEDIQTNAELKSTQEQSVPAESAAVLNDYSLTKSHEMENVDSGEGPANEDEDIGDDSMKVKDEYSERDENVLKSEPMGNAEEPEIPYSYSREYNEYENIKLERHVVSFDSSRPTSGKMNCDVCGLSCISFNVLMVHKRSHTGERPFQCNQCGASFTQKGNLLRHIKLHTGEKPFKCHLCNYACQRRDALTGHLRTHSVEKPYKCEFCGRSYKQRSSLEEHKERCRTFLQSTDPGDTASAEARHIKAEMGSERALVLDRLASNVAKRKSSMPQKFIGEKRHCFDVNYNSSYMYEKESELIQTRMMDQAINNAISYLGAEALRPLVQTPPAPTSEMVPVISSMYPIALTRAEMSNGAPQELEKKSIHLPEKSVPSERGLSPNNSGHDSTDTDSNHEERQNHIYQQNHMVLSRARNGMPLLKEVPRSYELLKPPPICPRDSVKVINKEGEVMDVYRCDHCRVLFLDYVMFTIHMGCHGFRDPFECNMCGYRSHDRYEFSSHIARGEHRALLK
Description: (§1) […] of DMSO and the compounds were added, and the mixture was incubated in an incubator at 5% CO2 and 37° C. for 4 h. The cells were centrifuged, and the culture medium was discarded. PBS was added for washing and then discarded. The whole cell lysate was prepared using a RIPA lysis buffer containing a protease inhibitor cocktail and a phosphatase inhibitor, and incubated on ice for 30 min. The mixture was centrifuged, and the cell debris was discarded. The whole cell lysate supernatant was collected and transferred to a fresh EP tube. Samples were prepared using a loading buffer after a BCA protein assay. The samples were incubated in a metal bath at 100° C. for 10 min. The samples were electrophoretically separated from proteins on a 4-20% precast gel (SDS-PAGE gel), transferred to a PVDF membrane, blocked with 5% NFDM/TBST for 1 h at room temperature, co-incubated overnight at 4° C. with the primary antibody, and co-incubated for 2 h at room temperature with the secondary antibody on the next day. The signals were detected on the […]™ imaging system.

GSPT1 protein = target: T2, GSPT1 protein (Homo sapiens, UniProt P15170); assay: Degradation of GSPT1 protein in NB-4 cells (Western blot); settings: for inhibition at 1 µM: read-out: GSPT1 degradation
T2 construct: The whole cell lysate was prepared using a RIPA lysis buffer; endogenous in cells; host or cells: NB-4 cells
T2 sequence (P15170 whole entry): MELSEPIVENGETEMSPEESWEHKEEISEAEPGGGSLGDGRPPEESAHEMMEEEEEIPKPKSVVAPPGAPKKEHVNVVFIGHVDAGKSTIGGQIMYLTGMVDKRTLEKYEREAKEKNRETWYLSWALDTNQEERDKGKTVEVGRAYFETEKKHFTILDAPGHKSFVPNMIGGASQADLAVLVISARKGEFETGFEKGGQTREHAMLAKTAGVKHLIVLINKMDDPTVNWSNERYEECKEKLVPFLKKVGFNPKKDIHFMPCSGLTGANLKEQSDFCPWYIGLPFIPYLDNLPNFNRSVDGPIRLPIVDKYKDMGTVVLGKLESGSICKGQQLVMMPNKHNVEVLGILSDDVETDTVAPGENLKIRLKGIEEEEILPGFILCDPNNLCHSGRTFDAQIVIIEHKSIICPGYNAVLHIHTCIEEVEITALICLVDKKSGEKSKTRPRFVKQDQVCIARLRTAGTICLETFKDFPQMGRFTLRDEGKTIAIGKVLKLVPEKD
Method in brief: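 NB-4 cells treated with compounds at 1 μM for 6 h at 37 °C, 5% CO2, with DMSO control. RIPA whole-cell lysates, BCA-normalized, were run on 4-20% SDS-PAGE and immunoblotted for GSPT1 protein.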

MV-4-11 cells = assay: Antiproliferative activity against MV-4-11 cells (CellTiter-Glo, 72 h); settings: Homo sapiens
Method in brief: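 MV-4-11 cells in RPMI + 10% FBS plated at 5,000 cells/well and pre-incubated 24 h at 37 °C, 5% CO2. Compounds were then added (final DMSO 0.2%) and cells incubated 72 h. Viability was read by CellTiter-Glo luminescence after 30 min equilibration at room temperature.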

NCI-H929 cells = assay: Antiproliferative activity against various tumor cells: NCI-H929; settings: Homo sapiens, read-out: Antiproliferative activity IC50 NCI-H929
Description: (§2) U937, NCI-H929, AML-2, and MOLM-13 cells in the logarithmic growth phase were diluted in media RPMI+10% FBS, RPMI+10% FBS, MEMα+20% FBS, RPMI+20% FBS, respectively, and plated at 4,000 cells/well in 96-well whole black plates (WHB) with 50 μL/well. After plating, the plates were incubated in an incubator at 5% CO2 and 37° C. for 24 h before the compounds were added. The compounds were prepared into a 10 mM stock solution in DMSO and diluted in a culture medium to the desired concentrations (a final DMSO concentration of 0.2%). […] The plates were incubated at 5% CO2 and 37° C. for 72 h. After the incubation was complete, the plates were equilibrated at room temperature for 30 min. CellTiter-Glo® Reagent (Promega G7573) was added at 100 μL/well. The plates were shaken for 12 min on a microplate shaker. The luminescence value was measured at room temperature by the GloMax navigator (Promega GM2010).

hERG potassium channel = target: T3, hERG potassium channel (Homo sapiens, UniProt Q12809); assay: hERG inhibition assay (automated patch clamp, HEK293); settings: 3 μM, HEK293 cells, QPatch
T3 construct: expressed in transfected cells; host or cells: HEK293 cells
T3 sequence (Q12809 whole entry): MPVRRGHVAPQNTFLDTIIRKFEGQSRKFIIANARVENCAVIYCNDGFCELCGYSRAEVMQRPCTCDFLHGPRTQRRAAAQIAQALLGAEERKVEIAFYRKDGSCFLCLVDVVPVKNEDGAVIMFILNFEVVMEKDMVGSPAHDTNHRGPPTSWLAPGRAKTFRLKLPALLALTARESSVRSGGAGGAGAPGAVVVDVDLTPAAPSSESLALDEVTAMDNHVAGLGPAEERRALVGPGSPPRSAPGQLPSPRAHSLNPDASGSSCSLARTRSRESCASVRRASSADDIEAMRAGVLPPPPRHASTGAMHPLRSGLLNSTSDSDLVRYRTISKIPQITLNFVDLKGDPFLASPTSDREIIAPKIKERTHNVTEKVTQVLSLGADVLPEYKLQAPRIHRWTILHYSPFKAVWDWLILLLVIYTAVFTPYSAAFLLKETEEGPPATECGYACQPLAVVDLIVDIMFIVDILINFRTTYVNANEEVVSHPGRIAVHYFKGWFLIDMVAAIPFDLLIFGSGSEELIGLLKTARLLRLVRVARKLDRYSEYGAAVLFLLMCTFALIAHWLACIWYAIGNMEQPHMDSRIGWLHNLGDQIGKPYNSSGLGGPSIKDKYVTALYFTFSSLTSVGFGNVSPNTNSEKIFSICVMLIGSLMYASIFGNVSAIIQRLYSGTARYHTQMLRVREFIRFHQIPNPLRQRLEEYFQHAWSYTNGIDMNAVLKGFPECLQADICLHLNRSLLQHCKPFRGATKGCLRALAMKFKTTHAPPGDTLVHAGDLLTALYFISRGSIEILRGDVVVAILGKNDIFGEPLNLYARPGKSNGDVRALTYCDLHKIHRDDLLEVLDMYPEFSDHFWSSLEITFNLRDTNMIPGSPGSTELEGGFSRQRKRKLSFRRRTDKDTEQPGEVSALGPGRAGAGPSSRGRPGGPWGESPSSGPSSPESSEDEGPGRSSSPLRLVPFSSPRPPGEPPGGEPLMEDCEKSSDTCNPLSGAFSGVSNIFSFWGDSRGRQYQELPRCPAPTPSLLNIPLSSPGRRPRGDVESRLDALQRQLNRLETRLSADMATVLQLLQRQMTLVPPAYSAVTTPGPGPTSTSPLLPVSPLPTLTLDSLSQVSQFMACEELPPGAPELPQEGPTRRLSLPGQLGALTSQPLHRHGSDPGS
Text: The rapidly activating potassium channel encoded by human ether-a-go-go-related gene (hERG) is an important ion channel involved in the formation of cardiac action potential phase 3 repolarization. Blocking of the hERG channel by drugs can lead to the prolongation of cardiac repolarization and thus a prolonged QT interval in the electrocardiogram, known as long QT syndrome. Drug-induced delayed ventricular repolarization may in some cases trigger fatal arrhythmia-torsade de pointes-type ventricular tachycardia.
This assay was used to measure the effect of compounds on the hERG potassium channel clones expressed in human embryonic kidney (HEK293) cells. The assay procedures are as follows: the cells were transferred into a HEPES-buffered saline in glass-lined 96-well plates and exposed to an appropriate amount of test compound or control solution at various concentrations for 3 min. The test compounds were diluted in 0.3% DMSO.

MOLM-13 cells = assay: Antiproliferative activity against various tumor cells: MOLM-13; settings: Homo sapiens, read-out: Antiproliferative activity IC50 MOLM-13
Description: as §2

U937 cells = assay: Antiproliferative activity against various tumor cells: U937; settings: Homo sapiens, read-out: Antiproliferative activity IC50 U937
Description: as §2

IKZF1 = target: T4, IKZF1 (Homo sapiens, UniProt Q13422); assay: Degradation of IKZF1 protein in HL-60 cells (Western blot); settings: 4 h
T4 construct: The whole cell lysate was prepared using a RIPA lysis buffer; endogenous in cells; host or cells: HL-60 cells
T4 sequence (Q13422 whole entry): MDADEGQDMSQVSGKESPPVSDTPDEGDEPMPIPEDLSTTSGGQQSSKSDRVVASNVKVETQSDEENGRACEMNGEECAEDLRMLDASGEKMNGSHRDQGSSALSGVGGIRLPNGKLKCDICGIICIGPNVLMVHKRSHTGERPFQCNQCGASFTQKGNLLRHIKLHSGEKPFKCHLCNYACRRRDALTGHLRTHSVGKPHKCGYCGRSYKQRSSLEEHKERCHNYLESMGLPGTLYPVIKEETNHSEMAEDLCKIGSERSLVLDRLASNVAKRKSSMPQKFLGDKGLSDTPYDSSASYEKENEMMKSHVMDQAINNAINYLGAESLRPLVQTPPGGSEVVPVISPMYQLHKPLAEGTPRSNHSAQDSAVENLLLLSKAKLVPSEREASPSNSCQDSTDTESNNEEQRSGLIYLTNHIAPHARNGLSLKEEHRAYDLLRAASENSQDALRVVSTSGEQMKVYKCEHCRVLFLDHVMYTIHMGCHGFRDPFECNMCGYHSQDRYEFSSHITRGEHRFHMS
Description: as §1

Compound | IKZF3 degradation (IKZF3; 10 nM) | IKZF3 degradation (IKZF3; 100 nM) | IKZF3 degradation (IKZF3; 1000 nM) | inhibition at 1 µM (GSPT1 protein; NB-4, 6 h) [%] | degradation of GSPT1 protein (GSPT1 protein; co-incubated for 6 h with NB-4 cells) [%] | IC50 (MV-4-11 cells; MV4-11, 72 h, read-out: Antiproliferative activity IC50) [nM] | IC50 (MV-4-11 cells; MV4-11, read-out: IC50 against MV-4-11 cell proliferation) [nM] | IC50 (NCI-H929 cells; NCI-H929, 72 h) [nM] | hERG inhibition rate (hERG potassium channel) [%] | IC50 (MOLM-13 cells; MOLM-13, 72 h) [nM] | IC50 (U937 cells; U-937, 72 h) [nM] | IKZF1 degradation (IKZF1; 10 nM) | IKZF1 degradation (IKZF1; 100 nM) | IKZF1 degradation (IKZF1; 1000 nM) | inhibition at 1 µM (GSPT1 protein; NB-4 cells, compound 1 μM, 6 h) [%] | IC50 (MV-4-11 cells; MV4-11, MV-4-11 cells, 72 h, read-out: Antiproliferative activity IC50) [nM] | IC50 (NCI-H929 cells; NCI-H929 cells, 72 h) [nM] | IC50 (MOLM-13 cells; MOLM-13 cells, 72 h) [nM] | IC50 (U937 cells; U-937, U937 cells, 72 h) [nM]
O=C1CCC(N2Cc3c(ccc(CNC(=O)c4ccc(Cl)cc4)c3F)C2=O)C(=O)N1 (centres unmarked) [FDAB-48] | C (C denotes a percentage of degradation less than 500% but not less than 250%) | B (B denotes a percentage of degradation less than 800% but not less than 500%) | A (A denotes a percentage of GSPT1 protein degradation not less than 8000) | > 80 | 88 | 10 to 100 | 10.8 | 1 to 10 | 25 | 10 to 100 | 10 to 100 | B (B denotes a percentage of degradation less than 800% but not less than 500%) | A (A denotes a percentage of GSPT1 protein degradation not less than 8000) | A (A denotes a percentage of GSPT1 protein degradation not less than 8000) |  |  |  |  | 
Cc1ccc(C(=O)NCc2ccc3c(c2F)CN(C2CCC(=O)NC2=O)C3=O)c(F)c1 (centres unmarked) [FDAB-121] | D (D denotes a percentage of degradation less than 25%) | B (B denotes a percentage of degradation less than 800% but not less than 500%) | B (B denotes a percentage of degradation less than 800% but not less than 500%) |  |  |  |  |  | 9 |  |  | B (B denotes a percentage of degradation less than 800% but not less than 500%) | A (A denotes a percentage of GSPT1 protein degradation not less than 8000) | A (A denotes a percentage of GSPT1 protein degradation not less than 8000) | > 80 | 1 to 10 | 1 to 10 | 10 to 100 | 10 to 100
